In patent US11267823B2, “Substituted 1,2,3,3a,4,5,7,9,13,13a-decahydropyrido[1′,2′:4,5]pyrazino[1,2-a]pyrrolo[1,2-c]pyrimidines having HIV integrase inhibitory activity” (Shionogi & Co., Ltd., priority 2005, dated 2022):
Counter-ions that a name gives are not always drawn.

Tested on: VSV-g pseudotyped HIV vector that expresses luciferase (PHIV)
Test: microbe, parasite or virus in culture
Assay type: cell-based
Conditions: Human immunodeficiency virus 1, HEK-293T, 48 h, read-out: PHIV IC50

Compound	IC50
O=C(NCc1ccc(F)cc1F)c1cn2c(c(O)c1=O)C(=O)N1[C@@H](C2)OC[C@@H]2CCCC[C@@H]21 (racemic) [Example Z-35, racemic-(4aR,6aR,14aS)—N-[(2,4-Difluorophenyl)methyl]-12-hydroxy-11,13-dioxo-1,3,4,4a,5,6a,7,11,13,14a-decahydro-2H-pyrido[1′,2′:4,5]pyrazino[1,2-a][3,1]benzoxazine-10-carboxamide]	< 0.01 µM
O=C(NCc1ccc(F)cc1)c1cn2c(c(O)c1=O)C(=O)N1[C@@H](C2)OC[C@@H]2CCCC[C@@H]21 (racemic) [Example Z-36, racemic-(4R,6aR,14aS)—N-[(4-Fluorophenyl)methyl]-12-hydroxy-11,13-d oxo-1,3,4,4a,5,6a,7,11,13,14a-decahydro-2H-pyrido[1′,2′:4,5]pyrazino[1,2-a][3,1]benzoxazine-10-carboxamide]	< 0.01 µM
O=C(NCc1ccc(F)cc1F)c1cn2c(c(O)c1=O)C(=O)N1[C@@H](C2)OC[C@@H]2C[C@@H](c3ccccc3)CC[C@@H]21 (racemic) [Example Z-37, racemic-(3S,4aR,6aR,14aS)—N-[(2,4-Difluorophenyl)methyl]-12-hydroxy-11,13-dioxo-3-phenyl-1,3,4,4a,5,6a,7,11,13,14a-decahydro-2H-pyrido[1′,2′:4,5]pyrazino[1,2-a][3,1]benzoxazine-10-carboxamide]	< 0.01 µM
CC(C)CN1C[C@@H]2CCCC[C@@H]2N2C(=O)c3c(O)c(=O)c(C(=O)NCc4ccc(F)cc4F)cn3C[C@@H]12 (racemic) [Example Z-38, Sodium racemic-(4aS,6aS,14aS)-10-({[(2,4-difluorophenyl)methyl]amino}carbonyl)-6-(2-methylpropyl)-11,13-dioxo-1,2,3,4,4a,5,6,6a,7,11,13,14a-dodecahydropyrido[1′,2′:4,5]pyrazino[1,2-a]quinazolin-12-olate]	0.01 to 0.1 µM
CC(C)CN1C[C@@H]2CCC[C@@H]2N2C(=O)c3c(O)c(=O)c(C(=O)NCc4ccc(F)cc4F)cn3C[C@@H]12 (racemic) [Example Z-49, racemic-(3aS,5aS,13aS)—N-[(2,4-Difluorophenyl)methyl]-11-hydroxy-5-(2-methylpropyl)-10,12-dioxo-2,3,3a,4,5,5a,6,10,12,13a-decahydro-1H-cyclopenta[e]pyrido[1′,2′:4,5]pyrazino[1,2-a]pyrimidine-9-carboxamide]	< 0.01 µM
O=C(NCc1ccc(F)cc1F)c1cn2c(c(O)c1=O)C(=O)N1[C@H]3CCCC[C@H]3CN(CCN3CCOCC3)[C@@H]1C2 (racemic) [Example Z-51, racemic-(4aS,6aS,14aS)—N-[(2,4-Difluorophenyl)methyl]-12-hydroxy-6-[2-(4-morpholinyl)ethyl]-11,13-dioxo-1,2,3,4,4a,5,6,6a,7,11,13,14a-dodecahydropyrido-[1′,2′:4,5]pyrazino[1,2-a]quinazoline-10-carboxamide]	< 0.01 µM
O=C(NCc1ccc(F)cc1F)c1cn2c(c(O)c1=O)C(=O)N1[C@@H](C2)OC[C@@H]2CCC[C@@H]21 (racemic) [Example Z-52, racemic-(3aR,5aR,13aS)—N-[(2,4-Difluorophenyl)methyl]-11-hydroxy-10,12-dioxo-1,2,3,3a,4,5a,6,10,12,13a-decahydrocyclopenta[d]pyrido[1′,2′:4,5]pyrazino[2,1-b][1,3]oxazine-9-carboxamide]	< 0.01 µM
CN1C[C@@H]2CCCC[C@@H]2N2C(=O)c3c(O)c(=O)c(C(=O)NCc4ccc(F)cc4F)cn3C[C@@H]12 (racemic) [Example Z-53, racemic-(4aS,6aS,14aS)—N-[(2,4-Difluorophenyl)methyl]-12-hydroxy-6-methyl-11,13-dioxo-1,2,3,4,4a,5,6,6a,7,11,13,14a-dodecahydropyrido[1′,2′:4,5]pyrazino[1,2-a]quinazoline-10-carboxamide]	< 0.01 µM
COCCN1C[C@@H]2CCCC[C@@H]2N2C(=O)c3c(O)c(=O)c(C(=O)NCc4ccc(F)cc4F)cn3C[C@@H]12 (racemic) [Example Z-54, racemic-(4aS,6aS,14aS)—N-[(2,4-Difluorophenyl)methyl]-12-hydroxy-6-[2-(methyloxy)ethyl]11,13-dioxo-1,2,3,4,4a,5,6,6a,7,11,13,14a-dodecahydropyrido[1′,2′:4,5]pyrazino[1,2-a]quinazoline-10-carboxamide]	< 0.01 µM
CC(=O)NCCN1C[C@@H]2CCCC[C@@H]2N2C(=O)c3c(O)c(=O)c(C(=O)NCc4ccc(F)cc4F)cn3C[C@@H]12 (racemic) [Example Z-55]	0.01 to 0.1 µM
C[C@@H]1CO[C@H]2Cn3cc(C(=O)NCc4ccc(F)cc4F)c(=O)c(O)c3C(=O)N12 [Example Z-1, (3R,11aS)—N-[(2,4-Difluorophenyl)methyl]-6-hydroxy-3-methyl-5,7-dioxo-2,3,5,7,11,11a-hexahydro[1,3]oxazolo[3,2-a]pyrido[1,2-d]pyrazine-8-carboxamide sodium salt]	< 0.01 µM
O=C(NCc1ccc(F)cc1F)c1cn2c(c(O)c1=O)C(=O)N1C[C@@H]3CCCN3[C@H]1C2 [Example Z-2, (4aR,13aS)—N-[(2,4-Difluorophenyl)methyl]-10-hydroxy-9,11-dioxo-2,3,4a,5,9,11,13,13a-octahydro-1H-pyrido[1,2-a]pyrrolo[1′,2′:3,4]imidazo[1,2-d]pyrazine-8-carboxamide]	< 0.01 µM
O=C(NCc1ccc(F)cc1F)c1cn2c(c(O)c1=O)C(=O)N1CC[C@@H]3CCCN3[C@@H]1C2 [Example Z-3, (3aS,13aS)—N-[(2,4-Difluorophenyl)methyl]-8-hydroxy-7,9-dioxo-1,2,3,3a,4,5,7,9,13,13a-decahydropyrido-[1′,2′:4,5]pyrazino[1,2-a]pyrrolo[1,2-c]pyrimidine-10-carboxamide]	< 0.01 µM
O=C(NCc1ccc(F)cc1F)c1cn2c(c(O)c1=O)C(=O)N1C[C@H]3CCCN3[C@@H]1C2 [Example Z-4, (4aS,13aR)—N-[(2,4-Difluorophenyl)methyl]-10-hydroxy-9,11-dioxo-2,3,4a,5,9,11,13,13a-octahydro-1H-pyrido[1,2-a]pyrrolo[1′,2′:3,4]imidazo[1,2-d]pyrazine-8-carboxamide sodium salt]	< 0.01 µM
O=C(NCc1ccc(F)cc1)c1cn2c(c(O)c1=O)C(=O)N1C[C@H]3CCCN3[C@@H]1C2 [Example Z-5, (4aS,13aR)—N-[(4-Fluorophenyl)methyl]-10-hydroxy-9,11-dioxo-2,3,4a,5,9,11,13,13a-octahydro-1H-pyrido[1,2-a]pyrrolo[1′,2′:3,4]imidazo[1,2-d]pyrazine-8-carboxamide]	< 0.01 µM
O=C(NCc1ccc(F)cc1F)c1cn2c(c(O)c1=O)C(=O)N1[C@@H](Cc3ccccc3)CO[C@@H]1C2 [Example Z-6, (3S,11aR)—N-[(2,4-Difluorophenyl)methyl]-6-hydroxy-5,7-dioxo-3-(phenylmethyl)-2,3,5,7,11,11a-hexahydro[1,3]oxazolo[3,2-a]pyrido[1,2-d]pyrazine-8-carboxamide]	< 0.01 µM
O=C(NCc1ccc(F)cc1)c1cn2c(c(O)c1=O)C(=O)N1CC[C@@H]3CCCN3[C@@H]1C2 [Example Z-7, (3aS,13aS)—N-[(4-Fluorophenyl)methyl]-8-hydroxy-7,9-dioxo-1,2,3,3a,4,5,7,9,13,13a-decahydropyrido[1′,2′:4,5]pyrazino[1,2-a]pyrrolo[1,2-c]pyrimidine-10-carboxamide]	< 0.01 µM
CC[C@H](C)[C@H]1CO[C@@H]2Cn3cc(C(=O)NCc4ccc(F)cc4F)c(=O)c(O)c3C(=O)N12 [Example Z-8, (3S,11aR)—N-[(2,4-Difluorophenyl)methyl]-6-hydroxy-3-[(1S)-1-methylpropyl]-5,7-dioxo-2,3,5,7,11,11a-hexahydro[1,3]oxazolo[3,2-a]pyrido[1,2-d]pyrazine-8-carboxamide sodium salt]	0.01 to 0.1 µM
C[C@H]1CO[C@@H]2Cn3cc(C(=O)NCc4ccc(F)cc4F)c(=O)c(O)c3C(=O)N12 [Example Z-9, (3S,11aR)—N-[(2,4-Difluorophenyl)methyl]-6-hydroxy-3-methyl-5,7-dioxo-2,3,5,7,11,11a-hexahydro[1,3]oxazolo[3,2-a]pyrido[1,2-d]pyrazine-8-carboxamide sodium salt]	< 0.01 µM
C[C@H]1CO[C@@H]2Cn3cc(C(=O)NCc4ccc(F)cc4)c(=O)c(O)c3C(=O)N12 [Example Z-10, (3S,11aR)—N-[(4-fluorophenyl)methyl]-6-hydroxy-3-methyl-5,7-dioxo-2,3,5,7,11,11a-hexahydro[1,3]oxazolo[3,2-a]pyrido[1,2-d]pyrazine-8-carboxamide]	< 0.01 µM
CC(C)(C)[C@H]1CO[C@@H]2Cn3cc(C(=O)NCc4ccc(F)cc4F)c(=O)c(O)c3C(=O)N21 [Example Z-11, (3S,11aR)—N-[(2,4-Difluorophenyl)methyl]-3-(1,1-dimethylethyl)-6-hydroxy-5,7-dioxo-2,3,5,7,11,11a-hexahydro[1,3]oxazolo[3,2-a]pyrido[1,2-d]pyrazine-8-carboxamide]	< 0.01 µM
CC(C)(C)[C@H]1CO[C@@H]2Cn3cc(C(=O)NCc4ccc(F)cc4)c(=O)c(O)c3C(=O)N21 [Example Z-12, (3S,11aR)-3-(1,1-Dimethylethyl)-N-[(4-fluorophenyl)methyl]-6-hydroxy-5,7-dioxo-2,3,5,7,11,11a-hexahydro[1,3]oxazolo[3,2-a]pyrido[1,2-d]pyrazine-8-carboxamide]	< 0.01 µM
O=C(NCc1ccc(F)cc1F)c1cn2c(c(O)c1=O)C(=O)N1[C@@H](c3ccccc3)CO[C@@H]1C2 [Example Z-13, (3S,11aR)—N-[(2,4-Difluorophenyl)methyl]-6-hydroxy-5,7-dioxo-3-phenyl-2,3,5,7,11,11a-hexahydro[1,3]oxazolo[3,2-a]pyrido[1,2-d]pyrazine-8-carboxamide]	0.01 to 0.1 µM
O=C(NCc1ccc(F)cc1F)c1cn2c(c(O)c1=O)C(=O)N1[C@@H](CO)CO[C@@H]1C2 [Example Z-14, (3S,11aR)—N-[(2,4-Difluorophenyl)methyl]-6-hydroxy-3-(hydroxymethyl)-5,7-dioxo-2,3,5,7,11,11a-hexahydro[1,3]oxazolo[3,2-a]pyrido[1,2-d]pyrazine-8-carboxamide]	0.01 to 0.1 µM
